# Values quoted from earlier work in US20250129429A1, “GENE FUSIONS IN SARCOMA” (Foundation Medicine, Inc., priority 2021, published 2025).
# Assays:
# TrkB = TrkB (Homo sapiens, UniProt Q16620)
# NGF dimer = NGF dimer (Homo sapiens, UniProt P01138); details: binds the NGF dimer
# [1] = system: NTRK1 fusion-positive tumors; details: patients with NTRK1 fusion-positive tumors
# [2] = system: various solid tumors with NTRK fusions; details: monotherapy; adult and pediatric patients, with and without CNS metastases
# [3] = system: NTRK fusion-positive AML cell lines
# TrkA = TrkA (Homo sapiens, UniProt P04629)
# [4] = system: various solid tumors harboring NTRK fusions
# Sequence of TrkA (P04629 33-796): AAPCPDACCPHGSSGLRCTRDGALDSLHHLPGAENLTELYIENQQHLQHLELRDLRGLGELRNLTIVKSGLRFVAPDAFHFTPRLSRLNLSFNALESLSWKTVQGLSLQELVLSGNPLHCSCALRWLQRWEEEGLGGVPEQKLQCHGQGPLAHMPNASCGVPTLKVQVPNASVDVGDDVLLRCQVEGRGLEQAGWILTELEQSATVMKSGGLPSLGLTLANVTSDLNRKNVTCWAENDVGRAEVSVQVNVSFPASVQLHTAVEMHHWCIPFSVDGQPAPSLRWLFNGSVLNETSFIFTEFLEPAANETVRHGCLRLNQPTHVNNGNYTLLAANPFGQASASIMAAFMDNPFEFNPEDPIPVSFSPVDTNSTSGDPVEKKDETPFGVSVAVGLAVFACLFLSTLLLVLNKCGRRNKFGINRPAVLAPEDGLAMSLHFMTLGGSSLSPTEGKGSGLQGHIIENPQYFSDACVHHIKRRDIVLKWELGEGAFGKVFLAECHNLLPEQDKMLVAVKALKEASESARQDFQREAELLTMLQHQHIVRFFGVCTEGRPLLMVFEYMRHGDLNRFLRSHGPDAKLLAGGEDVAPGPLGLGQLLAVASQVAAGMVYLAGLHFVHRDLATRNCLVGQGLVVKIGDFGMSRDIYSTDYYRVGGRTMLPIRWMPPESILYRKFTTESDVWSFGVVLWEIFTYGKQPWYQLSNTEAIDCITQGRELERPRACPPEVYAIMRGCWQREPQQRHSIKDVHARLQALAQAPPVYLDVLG
# Sequence of NGF dimer (P01138 122-241): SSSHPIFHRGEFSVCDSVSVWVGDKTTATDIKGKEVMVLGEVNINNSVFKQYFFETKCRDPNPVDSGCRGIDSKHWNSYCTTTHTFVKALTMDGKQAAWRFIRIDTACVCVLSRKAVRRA
# Sequence of TrkB (Q16620 32-822, species assumed): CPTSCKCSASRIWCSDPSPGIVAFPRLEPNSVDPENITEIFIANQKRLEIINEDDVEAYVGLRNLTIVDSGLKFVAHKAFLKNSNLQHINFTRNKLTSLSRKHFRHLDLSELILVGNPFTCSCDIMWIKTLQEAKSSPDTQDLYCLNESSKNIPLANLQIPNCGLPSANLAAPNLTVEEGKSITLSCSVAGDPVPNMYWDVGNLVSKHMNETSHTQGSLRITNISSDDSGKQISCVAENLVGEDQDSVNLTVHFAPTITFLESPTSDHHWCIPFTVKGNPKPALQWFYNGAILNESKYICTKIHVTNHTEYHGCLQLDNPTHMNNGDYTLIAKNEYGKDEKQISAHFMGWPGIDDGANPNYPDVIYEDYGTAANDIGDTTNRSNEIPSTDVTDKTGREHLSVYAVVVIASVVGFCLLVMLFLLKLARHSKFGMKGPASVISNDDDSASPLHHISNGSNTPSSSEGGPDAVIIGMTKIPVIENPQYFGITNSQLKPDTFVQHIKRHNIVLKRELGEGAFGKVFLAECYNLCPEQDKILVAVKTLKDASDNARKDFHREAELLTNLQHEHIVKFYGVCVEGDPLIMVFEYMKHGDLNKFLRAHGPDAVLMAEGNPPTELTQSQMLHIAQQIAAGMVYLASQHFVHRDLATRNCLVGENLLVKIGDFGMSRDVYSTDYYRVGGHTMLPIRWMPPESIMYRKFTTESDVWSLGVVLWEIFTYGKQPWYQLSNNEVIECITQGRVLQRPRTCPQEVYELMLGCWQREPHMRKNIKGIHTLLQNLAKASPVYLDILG
smiles,measurement,setting,value
"CC(C)Oc1cc(Nc2nc(N[C@@H](C)c3ccc(F)cn3)ncc2Cl)n[nH]1 [AZ-23, 5-chloro-N-[(1S)-1-(5-fluoropyridin-2-yl)ethyl]-N′-(5-propan-2-yloxy-1H-pyrazol-3-yl)pyrimidine-2,4-diamine]",IC50,TrkB,8 nM
Cc1cc2nc3c(=O)[nH]c(=O)nc-3n(C)c2cc1C=O [Ro 08-2750],Kd,NGF dimer,~1000 nM
C[C@@H](Oc1cc(-c2cnn(C3CCNCC3)c2)cnc1N)c1c(Cl)ccc(F)c1Cl [crizotinib],clinical responses,[1],Durable clinical responses
"CN1CCN(c2ccc(C(=O)Nc3n[nH]c4ccc(Cc5cc(F)cc(F)c5)cc34)c(NC3CCOCC3)c2)CC1 [entrectinib, N-[5-(3,5-Difluorobenzyl)-1H-indazol-3-yl]-4-(4-methyl-1-piperazinyl)-2-(tetrahydro-2H-pyran-4-ylamino)benzamide]",clinical benefit,[2],Clinical benefit with entrectinib monotherapy has been achieved
same,preclinical sensitivity,[3],preclinical sensitivity has been observed
NC(=O)Nc1snc(S[C@@H]2CCCCc3ccccc32)c1C(N)=O [isothiazole 5n],IC50,TrkA,< 1 nM
O=C(Nc1cnn2ccc(N3CCC[C@@H]3c3cc(F)ccc3F)nc12)N1CC[C@H](O)C1 [larotrectinib],CR,[4]; adult and pediatric patients with solid tumors harboring NTRK fusions,17 % of patients
same,ORR,[4]; adult and pediatric patients with various solid tumors harboring NTRK fusions (88/109),81%
same,responses ongoing,[4]; at 12 months of treatment,75-81 % of patients
same,intracranial efficacy,[4]; individuals with NTRK fusion-positive gliomas or brain metastases,has been demonstrated
c1ccc2c(c1)[nH]c1c3cccnc3ccc21 [pyridocarbazole],IC50,TrkA,6 nM
